Source: patent US12233073B2, “Skin care formulations and skin cancer treatment” (Regents of the University of Minnesota, priority 2017, dated 2025)
Several values for one entry are separate records, joined by “and”; a condition that tells them apart may be missing. Identical values can stand only once. Like-named read-outs stand apart in the source and are kept apart here.

Experiments:
[1] = Absorption of sUV wavelengths by the PRPK inhibitors; type: physicochemical; details: for absorption of sUV wavelengths: UVB or UVA range (280 to 400 nm)
Experimental: To assess whether the effectiveness of rocuronium bromide or betamethasone 17-valerate was related to absorption or attenuation of sUV wavelengths, instead of or in addition to inhibition of PRPK phosphorylation, absorption of sUV wavelengths by rocuronium bromide or betamethasone 17-valerate was evaluated. […] The maximum absorption wavelength for rocuronium bromide was 227 nm, and that for betamethasone-17-valerate was 240 nm.

[2] = Pharmacokinetics: plasma levels after topical RB cream; type: in vivo, SKH1-Hrhr hairless mice; details: for ng/ml RB (plasma, single mouse): listed as RB; for concentration at 24 h: 24 h post-dose
Experimental: To assess pharmacokinetics, RB cream (1.0 mg RB in 100 μl cream) was topically applied to the dorsum of SKH1-Hrhr hairless mice (Charles River), and plasma sample were taken at 0, 0.25, 0.5, 1, 2, 6, 24 and 48 hours post-dose (3 mice/time point).

CCCCC(=O)O[C@]1(C(=O)CO)[C@@H](C)C[C@H]2[C@@H]3CCC4=CC(=O)C=C[C@]4(C)[C@@]3(F)[C@@H](O)C[C@@]21C [betamethasone 17-valerate]
maximum absorption wavelength [1]: 240 nm
absorption of sUV wavelengths [1]: do not Substantially Absorb or Block

C=CC[N+]1([C@H]2C[C@H]3[C@@H]4CC[C@H]5C[C@H](O)[C@@H](N6CCOCC6)C[C@]5(C)[C@H]4CC[C@]3(C)[C@H]2OC(C)=O)CCCC1 [rocuronium bromide]
time of peak plasma levels post application ([2]; 1.0 mg RB in 100 μl cream topically): ≤ 15 min
ng/ml RB (plasma, single mouse) ([2]; 0.25 h post-dose, 1.0 mg RB in 100 μl cream topically): 3058 ng/mL and 18 ng/mL and 210 ng/mL
ng/ml RB (plasma, single mouse) ([2]; 0.5 h post-dose, 1.0 mg RB in 100 μl cream topically): 123 ng/mL and 36 ng/mL and 73 ng/mL
ng/ml RB (plasma, single mouse) ([2]; 1 h post-dose, 1.0 mg RB in 100 μl cream topically): 7 ng/mL and 25 ng/mL and 48 ng/mL
ng/ml RB (plasma, single mouse) ([2]; 2 h post-dose, 1.0 mg RB in 100 μl cream topically, BDL = below detection limit (~2 ng/ml)): 15 ng/mL
ng/ml RB (plasma, single mouse) ([2]; 6 h post-dose, 1.0 mg RB in 100 μl cream topically, BDL = below detection limit (~2 ng/ml)): 8 ng/mL
concentration at 0.25 h ([2]; SKH1-Hrhr hairless, mouse, plasma, topical, 1 mg, 0.25 h post-dose, 3 mice): 1.1 µg/mL
concentration at 0.5 h ([2]; SKH1-Hrhr hairless, mouse, plasma, topical, 1 mg, 0.5 h post-dose, 3 mice): 0.0773 µg/mL
concentration at 1 h ([2]; SKH1-Hrhr hairless, mouse, plasma, topical, 1 mg, 1 h post-dose, 3 mice): 0.0267 µg/mL
concentration at 2 h ([2]; SKH1-Hrhr hairless, mouse, plasma, topical, 1 mg, 2 h post-dose, 1.0 mg RB in 100 μl cream topically, BDL = below detection limit (~2 ng/ml), read-out: ng/ml RB (plasma, single mouse)): 11 ng/mL
concentration at 2 h ([2]; SKH1-Hrhr hairless, mouse, plasma, topical, 1 mg, 2 h post-dose, 3 mice, read-out: MEAN ng/ml RB (plasma)): 8.7 ng/mL
concentration at 6 h ([2]; SKH1-Hrhr hairless, mouse, plasma, topical, 1 mg, 6 h post-dose, 1.0 mg RB in 100 μl cream topically, BDL = below detection limit (~2 ng/ml), read-out: ng/ml RB (plasma, single mouse)): 7 ng/mL
concentration at 6 h ([2]; SKH1-Hrhr hairless, mouse, plasma, topical, 1 mg, 6 h post-dose, 3 mice, read-out: MEAN ng/ml RB (plasma)): 5 ng/mL
concentration at 24 h ([2]; SKH1-Hrhr hairless, mouse, plasma, topical, 1 mg, 1.0 mg RB in 100 μl cream topically, BDL = below detection limit (~2 ng/ml), read-out: ng/ml RB (plasma, single mouse)): 14 ng/mL
concentration at 24 h ([2]; SKH1-Hrhr hairless, mouse, plasma, topical, 1 mg, 3 mice, read-out: MEAN ng/ml RB (plasma)): 4.7 ng/mL
time at which RB in plasma approaches baseline levels for the assay ([2]; post-dose, 1.0 mg RB in 100 μl cream topically): approximately 6 hours
maximum absorption wavelength [1]: 227 nm
absorption of sUV wavelengths [1]: do not Substantially Absorb or Block
